Like-named read-outs stand apart in the source and are kept apart here.
Key:
C. elegans = C. elegans dose-response (viability, minimum lethal concentration); assay type: in vivo, Caenorhabditis elegans; conditions: Caenorhabditis elegans, 72 h, L1 worms, 3 days at 20° C.
Procedure: Forty microliters of an HB101 E. coli bacterial suspension in liquid NGM (nematode growth media—see ref. 42 for the recipe) was added to each well of a 96-well flat-bottom culture plate, after which approximately 25 synchronized L1 worms, in 10 μl of M9 buffer (see ref. 43 for the recipe), were added to each well. The synchronized L1 worms were obtained from an embryo preparation performed the previous day (see ref. 43 for the protocol). For the L1 assays, 0.5 μl of test compound solution (or DMSO alone) was immediately added to the wells using a multichannel pipette; the final DMSO concentration is 1% (v/v). The worms were incubated for 3 days at 20° C. and the number of viable animals was counted.
At least three biological replicates were performed for each dose-response assay. For each biological replicate, two technical replicates were performed and the numbers of viable animals for each technical replicate were combined (i.e. ˜ 50 worms assayed per concentration). The number of viable worms at each concentration was divided by the corresponding DMSO control value to give the “relative viability” for each concentration. The “relative viability” values were then averaged across the biological replicates. Minimum lethal concentration was defined as the lowest concentration at which at least 20% of worms die.

M. incognita J2 larvae = assay: Meloidogyne incognita in vitro larval mobility assay; assay type: in vivo; conditions: for Replicate 1 z-score / Replicate 2 z-score: z-score vs untreated DMSO wells; for pest or weed control at 45 µM: Meloidogyne incognita, 96 h
Procedure: M. incognita (Kofoid & White) Chitwood Race 1 (originally isolated in Maryland) was used for all experiments, and was maintained on pepper (Capsicum annuum L.) cv. PA-136 in a greenhouse as previously described^44. Infective J2 juveniles were collected as described in ref. 45. The microwell dose-response experiments were carried out similarly to previously described protocols^44,46. In brief, 50 μL of deionized water was added to the wells of 96-well polystyrene plates and 0.5 μL of test compound (or DMSO alone) was added to each well. Approximately 35 J2s were then added to each well in 49.5 μL of deionized water. The chemicals were tested at 45 μM, and the final concentration of DMSO in each well was 0.5% (v/v). DMSO alone was added to 3 separate wells. The plates were covered with plastic adhesive strips, and the lids of the plates were sealed with parafilm. The plates were incubated at 25° C. without shaking for 4 days. The percent of worms that were immobile (% immobile) was quantified by counting the number of immobile worms after 4 days of incubation, dividing the number of immobile worms by the total number of worms in the well, and then multiplying by 100. Two replicates were performed for each treatment. The z-score for each treatment was calculated using the mean and standard deviation of the untreated DMSO control wells. The average % immobile value was calculated across the two replicates. A test compound was considered most promising if the z-score was greater than 1.645 in both replicates.

M. hapla eggs = assay: Meloidogyne hapla in vitro egg hatch assay; assay type: in vivo; conditions: 45 μM; for Number of Hatched Eggs: 8 days at room temperature, about 90 eggs per well, tested once; for Number of Hatched Eggs z-score: 8 days, z-score vs 8 untreated DMSO wells
Procedure: The M. hapla were originally obtained from a soil sample of muck soil from Ste-Clotilde, Quebec, Canada. Using tweezers, egg masses were carefully removed from root material from infested carrot roots. Eggs were liberated from the egg masses using a mild sodium hypochlorite bleaching protocol, whereby egg masses were bleached with a 10% commercial bleach (sodium hypochlorite) solution for 4 minutes with vigorous shaking, and then washed 5 times with deionized water. 50 μL of deionized water was added to each well of two 96-well polystyrene culture plates, and 0.5 μL of chemical (or DMSO alone) was added to each well. Approximately 90 eggs were added to each well in 49.5 ul of deionized water. The plates were sealed with parafilm and incubated for 8 days at room temperature without shaking in a Tupperware box filled with wet paper towels. After the 8-day incubation, the number of hatched eggs was counted for each treatment and for the untreated controls. Each chemical treatment was tested only once. 8 separate untreated DMSO controls were included in the experiment. The z-score for each treatment was calculated using the mean and standard deviation of the untreated DMSO control wells.

M. incognita = assay: Meloidogyne incognita infectivity assay (soil, tomato roots); assay type: in vivo; conditions: Meloidogyne incognita, 1344 h, 45 μM in soil, 8 weeks, eggs per mg root relative to DMSO control, read-out: % effectiveness at inhibiting reproduction of M. incognita
Excerpt: An M. incognita population originally collected from grape (Vitis vinifera) in Parlier, California, was used for all experiments, and they were maintained on tomato plants (Solanum lycopersicum ‘Rutgers’) as previously described^47. Infective J2 juveniles were collected as described in ref. 47.

tomato plants = assay: Root mass of tomato plants in the soil infectivity assay; conditions: 45 μM in soil, 8 weeks
Procedure: For the infectivity assays, 90 grams of soil (1:1 sand:loam mix) was added to each cell of several 6-cell plastic garden packs. The soil was drenched with 18 mL of deionized water containing dissolved test compound or DMSO alone. 2,500 infective J2 juveniles were then added to the soil in 2 mL of deionized water, for a total water volume of 20 mL. […] The DMSO concentration varied from 0.1% to 0.8% (v/v) depending on the stock concentration of the test compound. The highest DMSO concentration was used as the DMSO control. The J2s were incubated in the soil and chemical for 24 hours, after which two- to three-week old tomato seedlings were transplanted into the soil (one plant per cell). Two replicates were performed for each chemical treatment, and four replicates were done for the DMSO controls. The whole experiment was replicated twice, in two different batches on two different days, for a total of four replicates for each test compound treatment, and eight replicates for the DMSO controls. Inoculated plants were grown for 8 weeks in a greenhouse, as described^47, under long-day conditions (16-h photoperiod) with 26/18° C. day/night temperatures. After 8 weeks, the plants were destructively harvested. The tops were removed and discarded, and roots were gently washed with water to remove adhering soil. Eggs were extracted by placing rinsed roots in 0.6% sodium hypochlorite and agitating at 300 rpm for 3 min. Roots were then rinsed over nested 250—and 25.4-μm sieves, with eggs collected from the latter and suspended in water. Roots were dried in a 65° C. oven for at least 24 hours, after which dry roots were weighed. The number of eggs from each plant root was counted on a dissection microscope using a haemocytometer, and the number of eggs per milligram of root was calculated by dividing the total egg number by the mass of the dried root material. An average was taken across the replicates performed on the same day, and then normalized to the DMSO control average. […] An average percent effectiveness value was then calculated across the two different batches carried out on different days.

[1] = lowest concentration at which at least 20% of worms die, read-out: Minimum Lethal Concentration
[2] = same values in ppm, read-out: Minimum Lethal Concentration (ppm)
[3] = 45 μM, 4 days, average of the two replicates, read-out: Average % Immobile
[4] = 45 μM, 4 days, replicate 1, read-out: Replicate 1 % Immobile
[5] = 45 μM, 4 days, replicate 2, read-out: Replicate 2 % Immobile

Structure (SMILES) | minimal effective concentration (C. elegans; [1]) [µM] | minimal effective concentration (C. elegans; [2]) [µg/mL] | Replicate 1 z-score (M. incognita J2 larvae; 45 μM, 4 days, replicate 1) | Replicate 2 z-score (M. incognita J2 larvae; 45 μM, 4 days, replicate 2) | Number of Hatched Eggs (M. hapla eggs) | Number of Hatched Eggs z-score (M. hapla eggs) | also measured
Cc1ccc(-c2cn3ccsc3n2)cc1 [I-2] | 50 | 14.8 | [14.54] | [6.03] | – | – | pest or weed control at 45 µM (M. incognita J2 larvae; [3]): 68.5%; pest or weed control at 45 µM (M. incognita J2 larvae; [4]): 93.8%; pest or weed control at 45 µM (M. incognita J2 larvae; [5]): 43.1%
Cc1ccc(-c2nc3sccn3c2C)cc1 [I-3] | > 100 | > 22.8 | [6.94] | [2.76] | – | – | pest or weed control at 45 µM (M. incognita J2 larvae; [3]): 40.8%; pest or weed control at 45 µM (M. incognita J2 larvae; [4]): 56.7%; pest or weed control at 45 µM (M. incognita J2 larvae; [5]): 25%
Cc1ccc(-c2cn3c(C)csc3n2)cc1 [I-4] | 100 | 22.8 | – | – | 4 | [3.31] | –
Cc1ccc(-c2cn3cc(C)sc3n2)cc1 [I-5] | 25 | 5.7 | – | – | – | – | –
Cc1ccc(-c2cn3ccsc3n2)cc1C [I-6] | > 100 | > 22.8 | [4.25] | [3.22] | – | – | pest or weed control at 45 µM (M. incognita J2 larvae; [3]): 35.5%; pest or weed control at 45 µM (M. incognita J2 larvae; [4]): 43.5%; pest or weed control at 45 µM (M. incognita J2 larvae; [5]): 27.6%
CCc1ccc(-c2nc3sccn3c2C)cc1 [I-8] | 50 | 12.1 | – | – | – | – | –
CCc1ccc(-c2cn3c(C)csc3n2)cc1 [I-9] | 100 | 24.2 | – | – | 2 | [3.97] | –
CCc1cccc(-c2cn3ccsc3n2)c1 [I-11] | 100 | 22.8 | – | – | 3 | [3.64] | –
CC(C)(C)c1ccc(-c2cn3ccsc3n2)cc1 [I-12] | 100 | 25.6 | – | – | – | – | –
Cc1c(-c2cccc(F)c2)nc2sccn12 [I-15] | > 100 | > 23.2 | – | – | – | – | pest or weed control at 45 µM (M. incognita): 5.8%; Normalized root mass (relative to DMSO control) (tomato plants): 1.35
Cc1csc2nc(-c3cccc(F)c3)cn12 [I-16] | > 100 | > 23.2 | – | – | – | – | pest or weed control at 45 µM (M. incognita): 0%; Normalized root mass (relative to DMSO control) (tomato plants): 1.15
Fc1ccccc1-c1cn2ccsc2n1 [I-18] | – | – | – | – | – | – | pest or weed control at 45 µM (M. incognita): 0%; Normalized root mass (relative to DMSO control) (tomato plants): 1.13
Cc1c(-c2ccccc2F)nc2sccn12 [I-19] | > 100 | > 23.2 | – | – | – | – | pest or weed control at 45 µM (M. incognita): 16.6%; Normalized root mass (relative to DMSO control) (tomato plants): 1.27
Cc1csc2nc(-c3ccccc3F)cn12 [I-20] | > 100 | > 23.2 | – | – | – | – | –
Clc1cccc(-c2cn3ccsc3n2)c1 [I-23] | 100 | 23.5 | [14.66] | [13.61] | 1 | [4.30] | pest or weed control at 45 µM (M. incognita J2 larvae; [3]): ≥ 75%; pest or weed control at 45 µM (M. incognita J2 larvae; [4]): 94.4%; pest or weed control at 45 µM (M. incognita J2 larvae; [5]): 85%
Cc1c(-c2ccccc2Cl)nc2sccn12 [I-28] | > 100 | > 24.9 | – | – | – | – | pest or weed control at 45 µM (M. incognita): 17.4%; Normalized root mass (relative to DMSO control) (tomato plants): 1.37
Clc1ccc(-c2cn3ccsc3n2)c(Cl)c1 [I-32] | 6.25 | 1.7 | – | – | – | – | pest or weed control at 45 µM (M. incognita): 4.4%; Normalized root mass (relative to DMSO control) (tomato plants): 1.31
Brc1cccc(-c2cn3ccsc3n2)c1 [I-34] | 50 | 14 | [15.00] | [14.11] | 1 | [4.30] | pest or weed control at 45 µM (M. incognita J2 larvae; [3]): ≥ 75%; pest or weed control at 45 µM (M. incognita J2 larvae; [4]): 96.1%; pest or weed control at 45 µM (M. incognita J2 larvae; [5]): 87.8%
Cc1csc2nc(-c3cccc(Br)c3)cn12 [I-36] | > 100 | > 29.3 | – | – | – | – | –
Cc1cn2cc(-c3cccc(Br)c3)nc2s1 [I-37] | > 100 | > 29.3 | – | – | – | – | pest or weed control at 45 µM (M. incognita): 21.6%; Normalized root mass (relative to DMSO control) (tomato plants): 1.31
Brc1ccccc1-c1cn2ccsc2n1 [I-38] | 100 | 27.9 | – | – | – | – | pest or weed control at 45 µM (M. incognita): 0%; Normalized root mass (relative to DMSO control) (tomato plants): 1.21
Cc1c(-c2ccccc2Br)nc2sccn12 [I-39] | > 100 | > 29.3 | – | – | – | – | –
Cc1csc2nc(-c3ccccc3Br)cn12 [I-40] | > 100 | > 29.3 | – | – | – | – | –
Ic1cccc(-c2cn3ccsc3n2)c1 [I-42] | 25 | 8.2 | [5.89] | [11.03] | – | – | pest or weed control at 45 µM (M. incognita J2 larvae; [3]): 61.1%; pest or weed control at 45 µM (M. incognita J2 larvae; [4]): 51.5%; pest or weed control at 45 µM (M. incognita J2 larvae; [5]): 70.7%
Ic1ccccc1-c1cn2ccsc2n1 [I-43] | 50 | 16.3 | – | – | 4 | [3.31] | –
Nc1ccc(-c2cn3ccsc3n2)cc1 [I-44] | > 100 | > 21.5 | – | – | – | – | –
CCOc1ccc(-c2nc3sccn3c2C=O)cc1 [I-154] | – | – | [10.40] | [16.33] | 0 | [4.63] | pest or weed control at 45 µM (M. incognita J2 larvae; [3]): ≥ 75%; pest or weed control at 45 µM (M. incognita J2 larvae; [4]): 73.6%; pest or weed control at 45 µM (M. incognita J2 larvae; [5]): 100%; Number of Hatched Eggs (M. hapla eggs; listed as 1-154): completely inhibited egg hatching
CC(C)NC(=O)N1CC(=O)N(c2cc(Cl)cc(Cl)c2)C1=O [Iprodione, iprodione, reference compound] | – | – | [−0.02] | [1.71] | 15 | [−0.33] | pest or weed control at 45 µM (M. incognita J2 larvae; [3]): 13.8%; pest or weed control at 45 µM (M. incognita J2 larvae; [4]): 10.9%; pest or weed control at 45 µM (M. incognita J2 larvae; [5]): 16.7%
CNC(=O)O/N=C(\SC)C(=O)N(C)C [Oxamyl, oxamyl, reference compound] | – | – | [9.35] | [13.88] | 9 | [1.65] | pest or weed control at 45 µM (M. incognita J2 larvae; read-out: Average % Immobile): 66.9%; pest or weed control at 45 µM (M. incognita J2 larvae; read-out: Replicate 1 % Immobile): 67.2%; pest or weed control at 45 µM (M. incognita J2 larvae; read-out: Replicate 2 % Immobile): 66.7%

— patent US20240109914A1, “IMIDAZOTHIAZOLE COMPOUNDS AND ANALOGS THEREOF AND METHODS FOR TREATING NEMATODE INFECTIONS IN PLANTS” (The Governing Council of The University of Toronto, priority 2021, published 2024)
